In patent publication US20100331310A1, “BICYCLOAMINE DERIVATIVES” (priority 2008, published 2010):
Counter-ions that a name gives are not always drawn.

These compounds were tested against T1, human Nav1.8 (Homo sapiens, UniProt Q9Y5Y9) (assay: Membrane potential increase-inhibitory action on TTX-resistant Na channels in cells expressing human Nav1.8 gene (deltamethrin stimulation)).
T1 construct: expressed in transfected cells
T1 sequence (Q9Y5Y9 whole entry): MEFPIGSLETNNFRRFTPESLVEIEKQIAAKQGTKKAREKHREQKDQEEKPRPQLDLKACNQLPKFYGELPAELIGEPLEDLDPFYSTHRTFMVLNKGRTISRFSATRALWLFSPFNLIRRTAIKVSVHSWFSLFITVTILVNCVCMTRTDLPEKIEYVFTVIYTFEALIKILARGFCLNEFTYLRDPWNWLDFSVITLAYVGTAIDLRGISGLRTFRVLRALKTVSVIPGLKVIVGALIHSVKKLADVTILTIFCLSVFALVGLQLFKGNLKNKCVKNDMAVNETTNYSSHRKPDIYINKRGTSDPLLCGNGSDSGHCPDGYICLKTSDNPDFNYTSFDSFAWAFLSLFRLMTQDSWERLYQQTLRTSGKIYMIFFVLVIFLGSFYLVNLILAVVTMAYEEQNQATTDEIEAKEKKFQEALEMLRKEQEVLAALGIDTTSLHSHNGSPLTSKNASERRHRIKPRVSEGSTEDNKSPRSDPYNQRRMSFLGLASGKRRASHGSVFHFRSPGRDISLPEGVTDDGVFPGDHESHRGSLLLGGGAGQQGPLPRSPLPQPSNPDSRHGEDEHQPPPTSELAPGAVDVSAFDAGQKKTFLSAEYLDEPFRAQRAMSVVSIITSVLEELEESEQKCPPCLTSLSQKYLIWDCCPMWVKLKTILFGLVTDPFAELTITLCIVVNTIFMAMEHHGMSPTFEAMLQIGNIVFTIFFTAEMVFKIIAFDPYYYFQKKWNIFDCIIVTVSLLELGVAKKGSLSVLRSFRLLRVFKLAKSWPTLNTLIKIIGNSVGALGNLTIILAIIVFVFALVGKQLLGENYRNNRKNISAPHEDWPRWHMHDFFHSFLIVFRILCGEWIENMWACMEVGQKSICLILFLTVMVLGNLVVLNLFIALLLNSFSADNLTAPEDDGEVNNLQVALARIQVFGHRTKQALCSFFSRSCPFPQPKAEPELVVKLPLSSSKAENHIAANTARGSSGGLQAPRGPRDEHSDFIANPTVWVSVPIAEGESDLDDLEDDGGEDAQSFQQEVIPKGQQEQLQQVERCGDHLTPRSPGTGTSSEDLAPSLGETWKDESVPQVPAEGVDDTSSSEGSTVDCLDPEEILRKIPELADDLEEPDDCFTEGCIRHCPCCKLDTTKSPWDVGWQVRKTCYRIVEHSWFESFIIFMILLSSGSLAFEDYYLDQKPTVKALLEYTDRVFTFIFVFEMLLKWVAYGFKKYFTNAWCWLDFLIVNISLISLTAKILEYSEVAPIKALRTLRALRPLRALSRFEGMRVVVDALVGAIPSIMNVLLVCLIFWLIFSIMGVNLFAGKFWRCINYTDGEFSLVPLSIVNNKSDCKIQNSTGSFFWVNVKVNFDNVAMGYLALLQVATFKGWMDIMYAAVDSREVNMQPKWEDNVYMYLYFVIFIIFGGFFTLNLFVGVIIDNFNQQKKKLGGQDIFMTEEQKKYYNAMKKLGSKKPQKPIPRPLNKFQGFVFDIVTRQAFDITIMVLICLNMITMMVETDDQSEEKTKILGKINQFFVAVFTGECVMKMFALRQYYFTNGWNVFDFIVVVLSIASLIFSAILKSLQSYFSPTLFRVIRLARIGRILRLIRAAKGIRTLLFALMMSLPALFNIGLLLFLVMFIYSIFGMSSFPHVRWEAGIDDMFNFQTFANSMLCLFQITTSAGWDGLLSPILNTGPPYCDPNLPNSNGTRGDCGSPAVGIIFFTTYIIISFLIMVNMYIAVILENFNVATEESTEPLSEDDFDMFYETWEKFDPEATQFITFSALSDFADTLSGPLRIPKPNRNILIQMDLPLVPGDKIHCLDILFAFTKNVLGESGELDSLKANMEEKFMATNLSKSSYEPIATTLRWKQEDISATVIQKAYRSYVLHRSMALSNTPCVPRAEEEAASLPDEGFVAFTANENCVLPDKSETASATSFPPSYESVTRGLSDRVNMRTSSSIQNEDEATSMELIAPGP
Type: cell-based
Description: A cell line expressing human Nav1.8 gene was used to evaluate the pharmacological effects of compounds of the invention.
1. A membrane potential-sensitive dye containing TTX (final concentration: 0.25 μM) was added to cells expressing human Nav1.8, prior to incubation at 37° C. for 30-60 minutes. 2. The test compound was added to the cells, and the mixture was stationed for 15-30 minutes at room temperature while shielded from light. 3. Deltamethrin (final concentration: 50 μM), a Nav1.8 channel stimulant, was added, and the change in fluorescence intensity due to increased membrane potential was measured.
The Nav1.8 channel inhibition of the test compound was determined by the following equation.
`Cc1nn(C[C@H](F)CN2C3CCC2CC(OCc2cccs2)C3)c(=O)n1C` (stereo partly drawn) [Example 7, (Endo)-2-{(R)-2-fluoro-3-[3-(thiophen-2-ylmethoxy)-8-azabicyclo[3.2.1]oct-8-yl]propyl}-4,5-dimethyl-2,4-dihydro[1,2,4]triazol-3-one] showed an IC50 of 4.3 µM. Compound `Cc1nc(=O)n(C[C@@H](F)CN2[C@@H]3CC[C@H]2C[C@@H](OCc2cccc(F)c2)C3)c(=O)n1C` [Example 13, (Endo)-3-{(S)-2-fluoro-3-[3-(3-fluorobenzyloxy)-8-azabicyclo[3.2.1]oct-8-yl]propyl}-1,6-dimethyl-1H-[1,3,5]triazine-2,4-dione oxalate] has an IC50 of 10 µM. In the case of `Cc1nc(=O)n(C[C@H](F)CN2[C@@H]3CC[C@H]2C[C@@H](OCc2cccc(F)c2)C3)c(=O)n1C` [Example 15, (Endo)-3-{(R)-2-fluoro-3-[3-(3-fluorobenzyloxy)-8-azabicyclo[3.2.1]oct-8-yl]propyl}-1,6-dimethyl-1H-[1,3,5]triazine-2,4-dione oxalate], the IC50 is reported as 2.4 µM. `Cc1cccc(COC2CC3CCC(C2)N3CC(F)Cn2c(=O)nc(C)n(C)c2=O)c1` (stereo not drawn) [Example 21, (Endo)-3-{2-fluoro-3-[3-(3-methylbenzyloxy)-8-azabicyclo[3.2.1]oct-8-yl]-propyl}-1,6-dimethyl-1H-[1,3,5]triazine-2,4-dione oxalate] showed an IC50 of 4 µM. `Cc1nn(C[C@H](F)CN2[C@@H]3CC[C@H]2C[C@@H](OCc2cccc(F)c2)C3)c(=O)n1-c1ccn(C)n1` [Example 23, (Endo)-2-{(R)-2-fluoro-3-[3-(3-fluorobenzyloxy)-8-azabicyclo[3.2.1]oct-8-yl]propyl}-5-methyl-4-(1-methyl-1H-pyrazol-3-yl)-2,4-dihydro[1,2,4]triazol-3-one oxalate] showed an IC50 of 5.3 µM. Work on `Cc1nn(C[C@@H](F)CN2[C@@H]3CC[C@H]2C[C@@H](OCc2ccc(F)cc2)C3)c(=O)n1-c1ccn(C)n1` [Example 24, (Endo)-2-{(S)-2-fluoro-3-[3-(4-fluorobenzyloxy)-8-azabicyclo[3.2.1]oct-8-yl]propyl}-5-methyl-4-(1-methyl-1H-pyrazol-3-yl)-2,4-dihydro[1,2,4]triazol-3-one oxalate] yielded an IC50 of 3.7 µM. In the case of `CCc1ccccc1COC1CC2CCC(C1)N2C[C@H](O)Cn1nc(C)n(CC)c1=O` (stereo partly drawn) [Example 31, (Endo)-4-ethyl-2-{(S)-3-[3-(2-ethylbenzyloxy)-8-azabicyclo[3.2.1]oct-8-yl]-2-hydroxypropyl}-5-methyl-2,4-dihydro[1,2,4]triazol-3-one], the IC50 is reported as 1 µM. In the case of `Cc1nn(C[C@H](O)CN2[C@@H]3CC[C@H]2C[C@@H](OCc2ccc(F)cc2)C3)c(=O)n1-c1cnn(C)c1` [Example 34, (Endo)-2-{(R)-3-[3-(4-fluorobenzyloxy)-8-azabicyclo[3.2.1]oct-8-yl]-2-hydroxypropyl}-5-methyl-4-(1-methyl-1H-pyrazol-4-yl)-2,4-dihydro[1,2,4]triazol-3-one], the IC50 is reported as 16 µM. With `CCn1cnn(C[C@@H](O)CN2[C@@H]3CC[C@H]2C[C@@H](OCc2c(C)cccc2F)C3)c1=O` [Example 35, (Endo)-4-ethyl-2-{(S)-3-[3-(2-fluoro-6-methylbenzyloxy)-8-azabicyclo[3.2.1]oct-8-yl]-2-hydroxypropyl}-2,4-dihydro[1,2,4]triazol-3-one] the IC50 was 14 µM. For `Cc1nn(CC(O)CN2[C@@H]3CC[C@H]2C[C@@H](OCc2ccccc2F)C3)c(=O)n1-c1nccs1` (stereo partly drawn) [Example 48, (Endo)-2-{3-[3-(2-fluorobenzyloxy)-8-azabicyclo[3.2.1]oct-8-yl]-2-hydroxypropyl}-5-methyl-4-thiazol-2-yl-2,4-dihydro[1,2,4]triazol-3-one oxalate], the IC50 was 0.2 µM. For `Cn1c(-c2cocn2)nn(CC(O)CN2[C@@H]3CC[C@H]2C[C@@H](OCc2ccccc2CF)C3)c1=O` (stereo partly drawn) [Example 55, (Endo)-2-{3-[3-(2-fluoromethylbenzyloxy)-8-azabicyclo[3.2.1]oct-8-yl]-2-hydroxy-propyl}-4-methyl-5-oxazol-4-yl-2,4-dihydro[1,2,4]triazol-3-one], the IC50 was 12 µM. `Cn1c(-c2ccccc2)nn(CCCN2[C@@H]3CC[C@H]2C[C@@H](OCc2ccccc2F)C3)c1=O` [Example 57, (Endo)-2-{3-[3-(2-fluorobenzyloxy)-8-azabicyclo[3.2.1]oct-8-yl]propyl}-4-methyl-5-phenyl-2,4-dihydro[1,2,4]triazol-3-one oxalate] was tested, and the IC50 was 0.08 µM. `CCn1c(C)nc(=O)n(CCCN2[C@@H]3CC[C@H]2C[C@@H](OCc2c(F)cccc2-c2ccccc2)C3)c1=O` [Example 91, (Endo)-1-ethyl-3-{3-[3-(3-fluorobiphenyl-2-ylmethoxy)-8-azabicyclo[3.2.1]oct-8-yl]propyl}-6-methyl-1H-[1,3,5]triazine-2,4-dione oxalate] showed an IC50 of 0.17 µM. In the case of `Cc1nn2c(=O)n(C[C@H](F)CN3[C@@H]4CC[C@H]3C[C@@H](OCc3cccc(F)c3)C4)c(=O)nc2n1C` [Example 101, (Endo)-6-{(R)-2-fluoro-3-[3-(3-fluorobenzyloxy)-8-azabicyclo[3.2.1]oct-8-yl]propyl}-2,3-dimethyl-3H-[1,2,4]triazole[1,5-a][1,3,5]triazine-5,7-dione], the IC50 is reported as 2.7 µM. With `Cc1nn2c(=O)n(C[C@H](F)CN3[C@@H]4CC[C@H]3C[C@@H](OCc3ccc(F)c(F)c3)C4)c(=O)nc2n1C` [Example 102, (Endo)-6-{(R)-3-[3-(3,4-di-fluorobenzyloxy)-8-azabicyclo[3.2.1]oct-8-yl]-2-fluoropropyl}-2,3-dimethyl-3H-[1,2,4]triazole[1,5-a][1,3,5]triazine-5,7-dione] the IC50 was 2.8 µM. In the case of `O=c1nc2n(c(=O)n1C[C@H](F)CN1[C@@H]3CC[C@H]1C[C@@H](OCc1ccc(F)cc1)C3)CCC2` [Example 128, (Endo)-3-{(R)-2-fluoro-3-[3-(4-fluorobenzyloxy)-8-azabicyclo[3.2.1]oct-8-yl]propyl}-7,8-dihydro-6H-pyrrolo[1,2-a][1,3,5]triazine-2,4-dione oxalate], the IC50 is reported as 3.7 µM. For `Cc1cccc(F)c1CO[C@H]1C[C@H]2CC[C@@H](C1)N2CCCn1c(=O)nc2n(c1=O)CCCCC2` [Example 136, (Endo)-3-{3-[3-(2-fluoro-6-methylbenzyloxy)-8-azabicyclo[3.2.1]oct-8-yl]propyl}-7,8,9,10-tetrahydro-6H-[1,3,5]triazino[1,2-a]azepine-2,4-dione oxalate], the IC50 was 4.9 µM. `Cc1ccccc1OC[C@@H]1C[C@H]2CC[C@@H](C1)N2CCCCn1nc2ccccn2c1=O` [Example 153, (Exo)-2-{4-[3-(2-methylphenoxymethyl)-8-azabicyclo[3.2.1]oct-8-yl]butyl}-2H-[1,2,4]triazolo[4,3-a]pyridin-3-one oxalate] was tested, and the IC50 was 3.7 µM. For `O=c1n(CC[C@H](O)CN2[C@@H]3CC[C@H]2C[C@@H](OCc2ccccc2F)C3)nc2ccccn12` [Example 155, (Endo)-2-{(S)-4-[3-(2-fluorobenzyloxy)-8-azabicyclo[3.2.1]oct-8-yl]-3-hydroxybutyl}-2H-[1,2,4]triazolo[4,3-a]pyridin-3-one], the IC50 was 1.3 µM. Compound `O=C(CN1[C@@H]2CC[C@H]1C[C@@H](OCc1ccccc1F)C2)Cn1nc2ccccn2c1=O` [Example 158, (Endo)-2-{3-[3-(2-fluorobenzyloxy)-8-azabicyclo[3.2.1]oct-8-yl]-2-oxopropyl}-2H-[1,2,4]triazolo[4,3-a]pyridin-3-one] has an IC50 of 0.93 µM.
